# Source: patent US11524966B1 (Valo Early Discovery, Inc., priority 2017, dated 2022)
# Biological target: T1, USP28 (USP28-5(1-1077)-TEV-6*His; LifeSensors) (Homo sapiens, UniProt Q96RU2)
# T1 construct: construct USP28 (USP28-5(1-1077)-TEV-6*His; LifeSensors); TEV cleavage site (C); 6xHis (C); purchased LifeSensors
# T1 sequence (Q96RU2 1-1077): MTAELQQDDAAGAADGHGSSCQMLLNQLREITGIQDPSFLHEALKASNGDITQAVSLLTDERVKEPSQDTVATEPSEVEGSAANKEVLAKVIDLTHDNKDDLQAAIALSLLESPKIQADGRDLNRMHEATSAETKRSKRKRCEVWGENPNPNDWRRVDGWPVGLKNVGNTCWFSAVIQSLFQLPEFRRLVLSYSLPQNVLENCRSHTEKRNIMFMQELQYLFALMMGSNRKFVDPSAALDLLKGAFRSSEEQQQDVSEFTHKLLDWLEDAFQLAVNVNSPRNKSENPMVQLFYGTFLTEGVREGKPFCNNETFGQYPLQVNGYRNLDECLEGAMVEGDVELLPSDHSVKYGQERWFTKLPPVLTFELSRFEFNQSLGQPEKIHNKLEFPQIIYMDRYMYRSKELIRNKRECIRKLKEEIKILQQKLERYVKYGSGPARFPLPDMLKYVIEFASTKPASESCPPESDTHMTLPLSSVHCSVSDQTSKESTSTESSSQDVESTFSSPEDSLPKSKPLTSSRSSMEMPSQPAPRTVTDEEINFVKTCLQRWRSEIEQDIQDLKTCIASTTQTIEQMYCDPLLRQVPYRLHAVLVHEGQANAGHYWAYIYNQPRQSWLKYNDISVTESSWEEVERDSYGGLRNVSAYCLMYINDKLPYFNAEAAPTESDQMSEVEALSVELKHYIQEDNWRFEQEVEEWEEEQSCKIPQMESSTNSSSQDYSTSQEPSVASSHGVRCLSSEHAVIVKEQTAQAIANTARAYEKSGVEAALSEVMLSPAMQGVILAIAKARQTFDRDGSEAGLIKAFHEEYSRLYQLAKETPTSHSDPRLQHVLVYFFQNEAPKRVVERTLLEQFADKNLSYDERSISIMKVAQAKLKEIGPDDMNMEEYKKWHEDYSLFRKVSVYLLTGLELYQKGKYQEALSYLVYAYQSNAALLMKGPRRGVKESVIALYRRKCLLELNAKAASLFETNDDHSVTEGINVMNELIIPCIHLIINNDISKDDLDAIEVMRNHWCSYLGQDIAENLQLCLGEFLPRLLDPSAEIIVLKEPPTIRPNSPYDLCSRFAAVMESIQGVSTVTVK
# Assay: Ubiquitin-Rhodamine 110 Assay for USP28 Activity, Example A-1(b)
# Format: biochemical
# Conditions: Ubiquitin-Rhodamine 110 assay, Example A-1(b)
# Method in brief: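 Single-point screening used 10 μM compound with 90 min room-temperature incubation; follow-up dose-responses (25 μM top, 3-fold) used 75 pM USP28 1-1077 construct, 30 min compound preincubation, 25 nM Ub-Rh110, 20 min reaction, citric acid quench. Rh110 fluorescence normalised to no-enzyme and DMSO controls; IC50 from 4-parameter logistic fit.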
row,SMILES,USP28 A-1(b) IC50 range
1,"O=C(N[C@H]1COc2cc(N3CCNCC3)ccc2C1)c1cnn2ccccc12 [Example 460, (R)-N-(7-(piperazin-1-yl)chroman-3-yl)pyrazolo[1,5-a]pyridine-3-carboxamide]",+ (>2 μM)
2,"O=C(N[C@H]1COc2cc(N3CCNCC3)ccc2C1)c1cnn2cc(Cl)ccc12 [Example 462, (R)-6-chloro-N-(7-(piperazin-1-yl)chroman-3-yl)pyrazolo[1,5-a]pyridine-3-carboxamide]",+ (>2 μM)
3,"Cc1cc(C)n2ncc(C(=O)N[C@H]3COc4cc(N5CCNCC5)ccc4C3)c2n1 [Example 463, (R)-5,7-dimethyl-N-(7-(piperazin-1-yl)chroman-3-yl)pyrazolo[1,5-a]pyrimidine-3-carboxamide]",+ (>2 μM)
4,"O=C(N[C@H]1COc2cc(N3CCNCC3)ccc2C1)c1ccc(NCc2cccc(Cl)c2)nc1 [Example 467, (R)-6-((3-chlorobenzyl)amino)-N-(7-(piperazin-1-yl)chroman-3-yl)nicotinamide]",++ (0.2-2 μM)
5,"O=C(N[C@H]1COc2cc(N3CCNCC3)ccc2C1)c1ccc(NCc2cccnc2)nc1 [Example 468, (R)-N-(7-(piperazin-1-yl)chroman-3-yl)-6-((pyridin-3-ylmethyl)amino)nicotinamide]",+ (>2 μM)
6,"O=C(N[C@H]1COc2cc(N3CCNCC3)ccc2C1)c1ccc(NCc2cccc(C(F)(F)F)c2)nc1 [Example 469, (R)-N-(7-(piperazin-1-yl)chroman-3-yl)-6-((3-(trifluoromethyl)benzyl)amino)nicotinamide]",++ (0.2-2 μM)
7,"O=C(N[C@H]1COc2cc(N3CCNCC3)ccc2C1)c1ccc(NCc2ccccn2)nc1 [Example 470, (R)-N-(7-(piperazin-1-yl)chroman-3-yl)-6-((pyridin-2-ylmethyl)amino)nicotinamide]",+ (>2 μM)
8,"O=C(N[C@H]1COc2cc(N3CCNCC3)ccc2C1)c1ccc(NCc2ccc3c(c2)OCCO3)nc1 [Example 471, (R)-6-(((2,3-dihydrobenzo[b][1,4]dioxin-6-yl)methyl)amino)-N-(7-(piperazin-1-yl)chroman-3-yl)nicotinamide]",+ (>2 μM)
9,"O=C(N[C@H]1COc2cc(N3CCNCC3)ccc2C1)c1ccc(NCc2ccc3c(c2)CCO3)nc1 [Example 472, (R)-6-(((2,3-dihydrobenzofuran-5-yl)methyl)amino)-N-(7-(piperazin-1-yl)chroman-3-yl)nicotinamide]",++ (0.2-2 μM)
10,"CC(=O)Nc1cccc(CNc2ccc(C(=O)N[C@H]3COc4cc(N5CCNCC5)ccc4C3)cn2)c1 [Example 473, (R)-6-((3-acetamidobenzyl)amino)-N-(7-(piperazin-1-yl)chroman-3-yl)nicotinamide]",+ (>2 μM)
